US20200260724A1, “METHODS TO FORMULATE NEUTRAL ORGANIC COMPOUNDS WITH POLYMER NANOPARTICLES” (Vive Crop Protection Inc., priority 2010, published 2020)

Experiments:
[1] = Viscosity of solutions and dispersions in cP; format: physicochemical; conditions: temperature printed per sample, 23.1-26.0° C.
Method: Solid 2,4-dichlorophenoxyacetic acid (2,4-D) (0.158 g, 0.72 mmol) and fresh deionized water (50 mL) were added to a 100 mL glass beaker, along with a stir bar. The medium was connected to a pH meter and the reading was at 2.76. To the stirring dispersion, aqueous NaOH (10N) was added dropwise. As the pH increased, more solid 2,4-D dissolved the dispersion became more transparent. Eventually, all of the solid 2,4-D dissolved completely, and the solution appeared transparent. The pH and viscosity of the solution was measured at 10.76 and 0.93 cP at 25.4° C. For the reference, the viscosity of pure water was measured using the same instrument and shown a value of 0.92 cP at 26.4° C.

[2] = Pyrene fluorescent probe of nanoparticle microenvironment (I1/I3 ratio); format: physicochemical; conditions: pyrene emission, excitation 340 nm
Description: The intensity ratio of the first and third vibronic bands (I1/I3) in the emission spectra of the pyrene monomer is very sensitive to the monomer's microenvironment, and can be used as a metric to gauge the hydrophobic nature of different polymer nanoparticles produced using the methods described in this patent.
The pyrene microenvironments from different polymer nanoparticles were probed for the following nanoparticles: Na^+-collapsed polyacrylic acid (Na-PAA), ZnO/polyacrylic nanoparticles (ZnO-PAA), Zn^2+-collapsed nanoparticles (Zn-PAA), Na^+-collapsed PMAA nanoparticles (Na-PMAA), Na^+-collapsed P(MAA-co-EA) nanoparticles (Na—P(MAA-EA), poly(vinyl pyrollidone)-collapsed polyacrylic acid nanoparticles (PVP/PAA). Aqueous pyrene-nanoparticle solutions were prepared as follows. 1.0 mg pyrene was dissolved in 10 mL discholormethane and was used as the stock pyrene solution (0.1 mg/mL). To prepare the aqueous pyrene-nanoparticle solutions, 10 micro liters of the stock pyrene solution was added to a 20 mL scintillation vial and was allowed to air dry in a fume hood for one hour. 80 mg of solid nanoparticles or polymer, 10 g of deionized water and a magnetic stir bar were then added to the vial. […] Emission spectra were measured on a Perkin Elmer LS 55 Luminescence Spectrometer using an excitation wavelength of 340 nm, having slit widths for both excitation and emission at 2.5 nm. […]

Row | Compound | Viscosity of solution or nanoparticle dispersion [1] [cP] | I1/I3 ratio ([2]; pH 6-8) | I1/I3 ratio ([2]; pH 8-10)
1 | O=C(O)COc1ccc(Cl)cc1Cl [2,4-D, 2,4-dichlorophenoxyacetic acid] | 0.93 | – | –
2 | c1cc2ccc3cccc4ccc(c1)c2c34 [Pyrene - control, pyrene] | – | 1.68 | 1.70
